In patent US20190083455A1, “METHODS AND COMPOSITIONS FOR THE MODULATION OF BETA-ENDORPHIN LEVELS” (The General Hospital Corporation, priority 2014, published 2019):
Where a name gives a salt, the structure may show the parent alone.

Test system: C57Bl/6 mice
Experiment: Conditioned place aversion testing
Type: in vivo
Protocol: The apparatus used consisted of a box with black interior and dim lighting and a box with white interior and bright lighting connected by a smaller gray “neutral” box, and procedures were followed as described (Skoubis et al., 2001; Weitemier and Murphy, 2009). Mice that had undergone 6 weeks of daily UV exposure or mock exposure were tested for baseline place preferences prior to conditioning (10-minute testing time per mouse). Over the following 4 days, conditioning took place in which mice were either conditioned with naloxone (10 mg/kg ip injection) or saline (ip injection) in the black box, and all animals were conditioned with saline (ip injection) in the white box. Conditioning time in each box was 30 minutes following injection. For each animal there were four hours between conditioning in one box and conditioning in the other box. On the day following the final day of conditioning, place preferences were again tested (post-conditioning, 10-minute testing time per mouse).
Because the magnitude of the measured withdrawal symptoms, while significant, was smaller than that commonly observed with exogenously administered opioids (Broseta et al., 2002), we wished to determine whether these withdrawal signs would be sufficient to elicit alterations in pro-active/operant behavioral choices. We utilized a conditioned place aversion assay (Skoubis et al., 2001; Weitemier and Murphy, 2009) to test whether a specific environment, paired with naloxone administration during conditioning, would be avoided in favor of a different environment paired with a neutral stimulus (saline) during conditioning in chronically UV-irradiated animals. Due to the kinetics of the UV response we chose to use naloxone as it allowed an acute effect of limited duration. Naloxone induces conditioned place aversion in exogenous opioid-dependent mice (Glass et al., 2008; Kenny et al., 2006). Following conditioning, mice were permitted to move freely between the two environments and changes in place preference were measured, in the absence of additional naloxone or saline administration. […]

Structure (SMILES): C=CCN1CC[C@]23c4c5ccc(O)c4O[C@H]2C(=O)CC[C@@]3(O)[C@H]1C5 [naloxone, naloxone hydrochloride]
- conditioned place aversion (10 mg/kg ip conditioning in the black box, chronically UV-irradiated mice): sufficient to induce conditioned place aversion
- conditioned place aversion (10 mg/kg ip conditioning in the black box, mock-treated (non-UV irradiated) control mice): had no effect on mock-treated (non-UV irradiated) control mice
- conditioned place aversion (K14cre control mice vs p53fl/fl K14cre mice after 3 weeks of daily UV exposure): significant naloxone conditioned place aversion
